Patent publication US20260262643A1, “HERBICIDAL BENZOXAZINES” (FMC CORPORATION, priority 2022, published 2026)

Assays:
barnyardgrass [1] = experiment: Test C preemergence; type: in vivo, Echinochloa crusgalli; conditions: for Barnyardgrass plant response rating: 500 g ai/ha, preemergence, 0 to 100 scale (0 no effect, 100 complete control); for Plant response rating, Barnyardgrass: Preemergence, 125 g ai/ha, 0 to 100 scale, 0 no effect, 100 complete control
In short: (§1)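 Visual injury score, 0–100 (100 = complete control), taken 10 days after treatment relative to untreated controls. Pre: directed spray onto soil over sown seeds. Post: foliar spray at one- to two-leaf stage, 2–10 cm. Solvent/surfactant formulation; loam–sand soil; greenhouse.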

blackgrass [2] = experiment: Test C preemergence; type: in vivo, Alopecurus myosuroides; conditions: for Blackgrass plant response rating: 500 g ai/ha, preemergence, 0 to 100 scale (0 no effect, 100 complete control); for Plant response rating, Blackgrass: Preemergence, 125 g ai/ha, 0 to 100 scale, 0 no effect, 100 complete control
In short: as §1

corn [3] = experiment: Test C preemergence; type: in vivo, Zea mays; conditions: for Corn plant response rating: 500 g ai/ha, preemergence, 0 to 100 scale (0 no effect, 100 complete control); for Plant response rating, Corn: Preemergence, 125 g ai/ha, 0 to 100 scale, 0 no effect, 100 complete control
In short: as §1

green foxtail [4] = experiment: Test C preemergence; type: in vivo, Setaria viridis; conditions: for Foxtail, Green plant response rating: 500 g ai/ha, preemergence, 0 to 100 scale (0 no effect, 100 complete control); for Plant response rating, Foxtail, Green: Preemergence, 125 g ai/ha, 0 to 100 scale, 0 no effect, 100 complete control
In short: as §1

kochia [5] = experiment: Test C preemergence; type: in vivo, Bassia scoparia; conditions: for Kochia plant response rating: 500 g ai/ha, preemergence, 0 to 100 scale (0 no effect, 100 complete control); for Plant response rating, Kochia: Preemergence, 125 g ai/ha, 0 to 100 scale, 0 no effect, 100 complete control
In short: as §1

oat, wild [6] = experiment: Test C preemergence; type: in vivo, Avena fatua; conditions: for Oat, Wild plant response rating: 500 g ai/ha, preemergence, 0 to 100 scale (0 no effect, 100 complete control); for Plant response rating, Oat, Wild: Preemergence, 125 g ai/ha, 0 to 100 scale, 0 no effect, 100 complete control
In short: as §1

pigweed, palmer [7] = experiment: Test C preemergence; type: in vivo, Amaranthus palmeri; conditions: for Pigweed, Palmer plant response rating: 500 g ai/ha, preemergence, 0 to 100 scale (0 no effect, 100 complete control)
In short: as §1

ragweed [8] = experiment: Test C preemergence; type: in vivo, Ambrosia artemisiifolia; conditions: for Ragweed plant response rating: 500 g ai/ha, preemergence, 0 to 100 scale (0 no effect, 100 complete control); for Plant response rating, Ragweed: Preemergence, 125 g ai/ha, 0 to 100 scale, 0 no effect, 100 complete control
In short: as §1

ryegrass, Italian [9] = experiment: Test C preemergence; type: in vivo, Lolium multiflorum; conditions: for Ryegrass, Italian plant response rating: 500 g ai/ha, preemergence, 0 to 100 scale (0 no effect, 100 complete control); for Plant response rating, Ryegrass, Italian: Preemergence, 125 g ai/ha, 0 to 100 scale, 0 no effect, 100 complete control
In short: as §1

soybean [10] = experiment: Test C preemergence; type: in vivo, Glycine max; conditions: for Soybean plant response rating: 500 g ai/ha, preemergence, 0 to 100 scale (0 no effect, 100 complete control); for Plant response rating, Soybean: Preemergence, 125 g ai/ha, 0 to 100 scale, 0 no effect, 100 complete control
In short: as §1

wheat [11] = experiment: Test C preemergence; type: in vivo, Triticum aestivum; conditions: for Wheat plant response rating: 500 g ai/ha, preemergence, 0 to 100 scale (0 no effect, 100 complete control); for Plant response rating, Wheat: Preemergence, 125 g ai/ha, 0 to 100 scale, 0 no effect, 100 complete control
In short: as §1

barnyardgrass [12] = experiment: Test C postemergence; type: in vivo, Echinochloa crusgalli; conditions: 10 days, 0 to 100 scale (0 no effect, 100 complete control)
In short: as §1

blackgrass [13] = experiment: Test C postemergence; type: in vivo, Alopecurus myosuroides; conditions: 10 days, 0 to 100 scale (0 no effect, 100 complete control)
In short: as §1

corn [14] = experiment: Test C postemergence; type: in vivo, Zea mays; conditions: 10 days, 0 to 100 scale (0 no effect, 100 complete control)
In short: as §1

green foxtail [15] = experiment: Test C postemergence; type: in vivo, Setaria viridis; conditions: 10 days, 0 to 100 scale (0 no effect, 100 complete control)
In short: as §1

kochia [16] = experiment: Test C postemergence; type: in vivo, Bassia scoparia; conditions: 10 days, 0 to 100 scale (0 no effect, 100 complete control)
In short: as §1

oat, wild [17] = experiment: Test C postemergence; type: in vivo, Avena fatua; conditions: 10 days, 0 to 100 scale (0 no effect, 100 complete control)
In short: as §1

pigweed, palmer [18] = experiment: Test C postemergence; type: in vivo, Amaranthus palmeri; conditions: 10 days, 0 to 100 scale (0 no effect, 100 complete control)
In short: as §1

ragweed [19] = experiment: Test C postemergence; type: in vivo, Ambrosia artemisiifolia; conditions: 10 days, 0 to 100 scale (0 no effect, 100 complete control)
In short: as §1

ryegrass, Italian [20] = experiment: Test C postemergence; type: in vivo, Lolium multiflorum; conditions: 10 days, 0 to 100 scale (0 no effect, 100 complete control)
In short: as §1

soybean [21] = experiment: Test C postemergence; type: in vivo, Glycine max; conditions: 10 days, 0 to 100 scale (0 no effect, 100 complete control)
In short: as §1

wheat [22] = experiment: Test C postemergence; type: in vivo, Triticum aestivum; conditions: 10 days, 0 to 100 scale (0 no effect, 100 complete control)
In short: as §1

galium = experiment: Test C postemergence; type: in vivo, Galium aparine; conditions: 10 days, 0 to 100 scale (0 no effect, 100 complete control)
In short: as §1

horseweed = experiment: Test C postemergence; type: in vivo, Erigeron canadensis; conditions: 10 days, 0 to 100 scale (0 no effect, 100 complete control)
In short: as §1

barnyardgrass [23] = experiment: Test D flooded paddy test; type: in vivo, Echinochloa crus-galli; conditions: 250 g ai/ha, applied to paddy water, visual rating after 13 to 14 days, scale 0 to 100 (0 no effect, 100 complete control)
In short: (§2)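 At the 2-leaf stage, floodwater 3 cm deep received the test compound; that depth persisted throughout. Plants scored visually 13 to 14 days on, 0 (no effect) to 100 (complete control), dash indicating no result.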

ducksalad = experiment: Test D flooded paddy test; type: in vivo, Heteranthera limosa; conditions: 250 g ai/ha, applied to paddy water, visual rating after 13 to 14 days, scale 0 to 100 (0 no effect, 100 complete control)
In short: as §2

rice = experiment: Test D flooded paddy test; type: in vivo, Oryza sativa; conditions: 250 g ai/ha, applied to paddy water, visual rating after 13 to 14 days, scale 0 to 100 (0 no effect, 100 complete control)
In short: as §2

sedge, umbrella = experiment: Test D flooded paddy test; type: in vivo, Cyperus difformis; conditions: 250 g ai/ha, applied to paddy water, visual rating after 13 to 14 days, scale 0 to 100 (0 no effect, 100 complete control)
In short: as §2

## Cc1ccc(-n2cnc(C(C)C)n2)cc1C(=O)N1CC(C(F)(F)F)Oc2c(Cl)cccc21 (centres unmarked) [Compound 354]
Barnyardgrass [1]
  Barnyardgrass plant response rating: 100
  Plant response rating, Barnyardgrass: 90
Blackgrass [2]
  Blackgrass plant response rating: 90
  Plant response rating, Blackgrass: 80
Corn [3]
  Corn plant response rating: 40
  Plant response rating, Corn: 20
Green foxtail [4]
  Foxtail, Green plant response rating: 100
  Plant response rating, Foxtail, Green: 100
Kochia [5]
  Kochia plant response rating: 80
  Plant response rating, Kochia: 0
oat, wild [6]
  Oat, Wild plant response rating: 90
  Plant response rating, Oat, Wild: 80
pigweed, palmer [7]
  Pigweed, Palmer plant response rating: 100
pigweed, palmer [7]; Preemergence, 125 g ai/ha, 0 to 100 scale, 0 no effect, 100 complete control
  Plant response rating, Pigweed, Palmer: 100
Ragweed [8]
  Ragweed plant response rating: 100
  Plant response rating, Ragweed: 10
ryegrass, Italian [9]
  Ryegrass, Italian plant response rating: 100
  Plant response rating, Ryegrass, Italian: 90
Soybean [10]
  Soybean plant response rating: 100
  Plant response rating, Soybean: 50
Wheat [11]
  Wheat plant response rating: 90
  Plant response rating, Wheat: 30
Barnyardgrass [12]; 500 g ai/ha, postemergence
  Plant response rating, Barnyardgrass: 70
Barnyardgrass [12]; Postemergence, 125 g ai/ha
  Plant response rating, Barnyardgrass: 30
Blackgrass [13]; 500 g ai/ha, postemergence
  Plant response rating, Blackgrass: 20
Blackgrass [13]; Postemergence, 125 g ai/ha
  Plant response rating, Blackgrass: 0
Corn [14]; 500 g ai/ha, postemergence
  Plant response rating, Corn: 60
Corn [14]; Postemergence, 125 g ai/ha
  Plant response rating, Corn: 20
Green foxtail [15]; 500 g ai/ha, postemergence
  Plant response rating, Foxtail, Green: 90
Green foxtail [15]; Postemergence, 125 g ai/ha
  Plant response rating, Foxtail, Green: 40
Kochia [16]; 500 g ai/ha, postemergence
  Plant response rating, Kochia: 90
Kochia [16]; Postemergence, 125 g ai/ha
  Plant response rating, Kochia: 80
oat, wild [17]; 500 g ai/ha, postemergence
  Plant response rating, Oat, Wild: 90
oat, wild [17]; Postemergence, 125 g ai/ha
  Plant response rating, Oat, Wild: 60
pigweed, palmer [18]; 500 g ai/ha, postemergence
  Plant response rating, Pigweed, Palmer: 100
pigweed, palmer [18]; Postemergence, 125 g ai/ha
  Plant response rating, Pigweed, Palmer: 80
Ragweed [19]; 500 g ai/ha, postemergence
  Plant response rating, Ragweed: 70
Ragweed [19]; Postemergence, 125 g ai/ha
  Plant response rating, Ragweed: 50
ryegrass, Italian [20]; 500 g ai/ha, postemergence
  Plant response rating, Ryegrass, Italian: 70
ryegrass, Italian [20]; Postemergence, 125 g ai/ha
  Plant response rating, Ryegrass, Italian: 20
Soybean [21]; 500 g ai/ha, postemergence
  Plant response rating, Soybean: 100
Soybean [21]; Postemergence, 125 g ai/ha
  Plant response rating, Soybean: 100
Wheat [22]; 500 g ai/ha, postemergence
  Plant response rating, Wheat: 60
Wheat [22]; Postemergence, 125 g ai/ha
  Plant response rating, Wheat: 30
galium; 500 g ai/ha, postemergence
  Plant response rating, Galium: 100
galium; Postemergence, 125 g ai/ha
  Plant response rating, Galium: 100
horseweed; 500 g ai/ha, postemergence
  Plant response rating, Horseweed: 80
horseweed; Postemergence, 125 g ai/ha
  Plant response rating, Horseweed: 30
Barnyardgrass [23]
  Plant response rating, Barnyardgrass (Flood): 0
ducksalad
  Plant response rating, Ducksalad (Flood): 0
rice
  Plant response rating, Rice (Flood): 0
sedge, umbrella
  Plant response rating, Sedge, Umbrella (Flood): 0

## Cc1nnc(-c2cccc(C(=O)N3C[C@H](C)Oc4c(Cl)cccc43)c2)o1 [Compound 355]
Barnyardgrass [1]
  Barnyardgrass plant response rating: 0
  Plant response rating, Barnyardgrass: 0
Blackgrass [2]
  Blackgrass plant response rating: 0
  Plant response rating, Blackgrass: 0
Corn [3]
  Corn plant response rating: 0
  Plant response rating, Corn: 0
Green foxtail [4]
  Foxtail, Green plant response rating: 20
  Plant response rating, Foxtail, Green: 20
Kochia [5]
  Kochia plant response rating: 0
  Plant response rating, Kochia: 0
oat, wild [6]
  Oat, Wild plant response rating: 0
  Plant response rating, Oat, Wild: 0
pigweed, palmer [7]
  Pigweed, Palmer plant response rating: 0
Ragweed [8]
  Ragweed plant response rating: 0
  Plant response rating, Ragweed: 0
ryegrass, Italian [9]
  Ryegrass, Italian plant response rating: 20
  Plant response rating, Ryegrass, Italian: 20
Soybean [10]
  Soybean plant response rating: 0
  Plant response rating, Soybean: 20
Wheat [11]
  Wheat plant response rating: 0
  Plant response rating, Wheat: 0
Barnyardgrass [12]; 500 g ai/ha, postemergence
  Plant response rating, Barnyardgrass: 10
Barnyardgrass [12]; Postemergence, 125 g ai/ha
  Plant response rating, Barnyardgrass: 10
Blackgrass [13]; 500 g ai/ha, postemergence
  Plant response rating, Blackgrass: 0
Blackgrass [13]; Postemergence, 125 g ai/ha
  Plant response rating, Blackgrass: 0
Corn [14]; 500 g ai/ha, postemergence
  Plant response rating, Corn: 10
Corn [14]; Postemergence, 125 g ai/ha
  Plant response rating, Corn: 10
Green foxtail [15]; 500 g ai/ha, postemergence
  Plant response rating, Foxtail, Green: 10
Green foxtail [15]; Postemergence, 125 g ai/ha
  Plant response rating, Foxtail, Green: 10
Kochia [16]; 500 g ai/ha, postemergence
  Plant response rating, Kochia: 0
oat, wild [17]; 500 g ai/ha, postemergence
  Plant response rating, Oat, Wild: 0
oat, wild [17]; Postemergence, 125 g ai/ha
  Plant response rating, Oat, Wild: 0
pigweed, palmer [18]; 500 g ai/ha, postemergence
  Plant response rating, Pigweed, Palmer: 10
Ragweed [19]; 500 g ai/ha, postemergence
  Plant response rating, Ragweed: 0
ryegrass, Italian [20]; 500 g ai/ha, postemergence
  Plant response rating, Ryegrass, Italian: 0
ryegrass, Italian [20]; Postemergence, 125 g ai/ha
  Plant response rating, Ryegrass, Italian: 0
Soybean [21]; 500 g ai/ha, postemergence
  Plant response rating, Soybean: 50
Wheat [22]; 500 g ai/ha, postemergence
  Plant response rating, Wheat: 10
Wheat [22]; Postemergence, 125 g ai/ha
  Plant response rating, Wheat: 10
galium; 500 g ai/ha, postemergence
  Plant response rating, Galium: 10
horseweed; 500 g ai/ha, postemergence
  Plant response rating, Horseweed: 0
horseweed; Postemergence, 125 g ai/ha
  Plant response rating, Horseweed: 0
Barnyardgrass [23]
  Plant response rating, Barnyardgrass (Flood): 0
ducksalad
  Plant response rating, Ducksalad (Flood): 0
rice
  Plant response rating, Rice (Flood): 0
sedge, umbrella
  Plant response rating, Sedge, Umbrella (Flood): 0
